In patent US6627641B1, “Antimalarial naphthylisoquinoline alkaloids and pharmaceutical compositions and medical uses thereof” (The United States of America as represented by the …, priority 1994, dated 2003):
Converted amounts (≈) assume the structure as drawn.

Experiments:
[1] = test system: P. falciparum (NF54 strain, clone A149); assay: In vitro 3H-hypoxanthine incorporation test with P. falciparum NF 54; format: cell-based, Plasmodium falciparum; conditions: NF 54, clone A149; six repeats; max. concentration 50 or 5 μg/ml
Experimental: Continuous in vitro cultures of asexual erythrocytic stages of P. falciparum (strain NF 54/64, clone A1A9) were maintained following essentially the method of Trager and Jensen (Science, 193, 673-675, 1976) at 37° C. under an atmosphere of 5% CO2, 5% O2, and 90% N2. The host cells were human erythrocytes (A or O Rh+). The culture medium was RPMI 1640 (Gibco), containing HEPES (BDH; 4.57 gL^−1), glucose (Sigma; 1.54 gL^−1), 5% NaHCO3 (Merck; 34.78 mlL^−1), and gentamycin (Merck; 8.70 mlL^−1) supplemented with 10% human plasma (A Rh+). Parasites were subinoculated every 3-4 days with initial conditions of 1% parasitemia and 1% hematocrit.
(§1) In vitro testing with P. falciparum was as follows. Each compound was dissolved in DMSO at a concentration of 20 mg ml^−1. These solutions were further diluted with physiological saline to obtain a stock solution of 500 μg ml^−1. Each test substance was applied in a series of seven, 4-fold dilutions (maximum concentrations 50 or 5 μg ml^−1). Each compound was tested in 6-fold repeats. Chloroquine was tested similarly, as a positive control.
(§2) The test protocol was performed in vitro, based upon the method of Desjardins, et al. (Antimicrobial Agents Chemother., 16, 710-715, 1979). The parasites (200 μl of a suspension with initial parasitemia of 0.5% and hematocrit of 1.5%) were incubated for 24 h in microtitre plates (Falcon MicroTest III) in hypoxanthine-free medium in the presence of 25 μl of test solution. The plates contained a negative control (6 wells with non-parasitized RBC's, no drug) and a positive control (6 wells with parasitized RBC's no drug). Thereafter, 25 μl of ^3H-hypoxanthine solution (Amersham) was added (0.5 μCi well ^−1), and the parasites were incubated for a further period of 18 h. Each well was harvested with a Cell Harvester (Nunc). The filter papers were dried for 2 h at 52° C., and their radioactivity was measured by liquid scintillation counting in Optiscint HiSafe (LKB Pharmacia).
(§3) The mean results, obtained as counts per min (cpm), were expressed as percentages of incorporation or growth inhibition. The sigmoid dose-response curve was then linearized by probit analysis with the aid of software provided by IWONL (Gent), adapted by G. Timperman and used to derive the IC50 values.

P. berghei (Anka) = assay: In vitro 3H-hypoxanthine incorporation test with P. berghei (Anka); format: cell-based, Plasmodium berghei; conditions: Anka strain
Experimental: as §1, §2, §3
For experiments with P. berghei (Anka strain), the parasites were maintained, and the in vitro tests performed essentially the same as above, except for the following modification. In the case of tests using P. berghei, the parasites were incubated in the same conditions as for P. falciparum (above) except that the incubations were started immediately in the presence of the ^3H-hypoxanthine and for 24 hour total duration (i.e., no delay in the addition of the ^3H-hypoxanthine). As before, the incorporated radioactivity was used as a-measure for parasite growth.

[2] = test system: P. falciparum (K1 strain); assay: In vitro 3H-hypoxanthine incorporation test with chloroquine-resistant P. falciparum K1; format: cell-based, Plasmodium falciparum
Experimental: Selected compounds were also tested against drug-resistant parasites. The method was the same as above except for the following modifications. The parasite used was the chloroquine-resistant strain, K1, maintained essentially according to Desjardins, et al. (supra, 1979). The culture medium was RPMI-1640 containing TES (Sigma; 7.64 gL^−1), glucose (BDH; 1.67 gL^−1), NaHCO3 (BDH; 1.94 gL^−1), and gentamycin (Nicholas; 30 mgL^−1) supplemented with 10% human serum (A RH+). Parasites were subinoculated every 3-4 days with initial conditions of 1% parasitemia and 2.5% hematocrit. For the testing, small aliquots of test material were dissolved in 20 μl EtOH and RPMI 1640 to give solutions of 1 or 10 mg ml^−1. Each was applied in a series of twelve, […] dilutions (final […] ranging from 50 to 1.19×10^−3 μg ml^−1). Chloroquine diphosphate (Sigma) was used in the same experiments as a reference and also in twelve, 4-fold dilutions (final concentrations 2×10^−5-1.19×10^−12M). Each compound was tested in duplicate.
Testing was performed in vitro based upon the method of Desjardins, et al (supra, 1979), as modified by O'Neill, et al. (Planta Med., 51, 394-399, 1985) and Ekong, et al. (Biochem. Pharmacol., 40, 297-301, 1990). The parasites (50 μl initial parasitemia of 1%, hematocrit of 5%) were incubated for 24 h in microtitre plates (Nunc) in normal (not hypoxanthine-depleted) medium in the presence of 50 μl of test solution. Controls were set up in each test by preparing 12-24 wells with non-parasitized RBC's and no test solution and 12-24 wells with parasitized RBC's and no test compound. Thereafter, 5 μl all of ^3H-hypoxanthine (Amersham) were added (0.2 μCi well ^−1), and the parasites incubated for a further period of 18 h. Each well was harvested with a Cell Harvester (Skatron). Glass fibre filters were dried briefly. Radioactivity was measured by liquid scintillation counting in Ecoscint (National Diagnostics).
The results obtained as cpm were expressed as percentages of incorporation of growth inhibition. The dose-related part of the sigmoidal curves obtained were linearized by regression analysis with the aid of software developed by S. Grant (I.SHTM) and used to calculate the IC50 values.

[3] = test system: Plasmodium berghei (Anka strain); assay: In vivo antimalarial test in OF1 mice inoculated with P. berghei; conditions: for Parasitemia (%) at day 4 / Parasitemia (%) at day 10: average (95% CI)
Experimental: Outbred, female, six-week-old OF1 mice (six mice per group treated and nontreated [control]) were inoculated intraperitoneally on day 0 with 10^6 P. berghei (Anka strain) blood forms. Two hours later, they were administered orally 50 mg/kg of dioncopeltine A or dioncophylline B. A second, third, and fourth treatment (50 mg/kg each) was given after 24, 48 and 72 h, respectively (days 1, 2, and 3). […] The parasitemia (%) in the control (not drug-treated) group was 3.50 (range 3.02-3.97; N=6). In the dioncopeltine A treated group, the parasitemia was 0.03 (range 0.01-0.06; N=6); in the dioncophylline B treated group, the parasitemia was […] (range 0.66-3.07; N=6).
The in vivo antimalarial testing was performed as described above, except that more doses and different treatment schedules were employed, as described in Tables 3 and 4.

[4] = 50 mg/kg/d oral, 1 day of treatment
[5] = 50 mg/kg/d oral, 2 days of treatment
[6] = 50 mg/kg/d oral, 3 days of treatment
[7] = 50 mg/kg/d oral, 4 days of treatment
[8] = oral treatment with 4×50 mg/kg/d

## COc1cc2c(c(OC)c1-c1ccc(OC)c3c(OC)cc(C)cc13)[C@@H](C)N(C)[C@@H](C)C2 [Ancistrobrevine A]
[1]
  IC50 P. falciparum NF54 strain: 19.336 µg/mL (≈ 44.4 µM)

## Dioncophylleine A
[1]
  IC50 P. falciparum NF54 strain: 21.295 µg/mL

## COc1cc(O)c(-c2c(C)cc(OC)c3c(OC)cccc23)c2c1[C@H](C)N[C@@H](C)C2 [Ancistrocladine]
P. berghei (Anka)
  IC50 P. berghei, Anka: >50 µg/mL
[1]
  IC50 P. falciparum NF54 strain: 18.353 µg/mL (≈ 45 µM)
[2]
  IC50 P. falciparum, K1 strain: 25.350 µg/mL (≈ 62.2 µM)

## COc1cc(CO)c(-c2ccc3c(c2O)[C@@H](C)N[C@H](C)C3)c2cccc(O)c12 [Dioncopeltine A]
P. berghei (Anka)
  IC50 P. berghei, Anka: 0.038 µg/mL (≈ 0.1 µM)
[3]; 50 mg/kg oral on days 0, 1, 2, 3, OF1 mice
  Signs of toxicity or other side effects: In neither of the treated groups were any signs of toxicity or other side effects observed
[3]; 50 mg/kg oral on days 0, 1, 2, 3, OF1 mice, N=6
  Parasitemia (%) from blood smears at day 4: 0.03%
[1]
  IC50 P. falciparum NF54 strain: 0.021 µg/mL (≈ 0.0553 µM)
[2]
  IC50 P. falciparum, K1 strain: 0.330 µg/mL (≈ 0.87 µM)

## COc1cc(C)c(-c2ccc(O)c3c2C[C@@H](C)N[C@@H]3C)c2cccc(O)c12 [Dioncophylline C]
P. berghei (Anka)
  IC50 P. berghei, Anka: 0.015 µg/mL (≈ 0.0413 µM)
[3]; 3.125 mg/kg/d oral, days 0-3
  Parasitemia (%) at day 4: 5.36 (3.96 − 6.75) %
[3]; 6.25 mg/kg/d oral, days 0-3
  Parasitemia (%) at day 4: 4.42 (2.77 − 6.06) %
[3]; 12.5 mg/kg/d oral, days 0-3
  Parasitemia (%) at day 4: 3.36 (2.35 − 4.37) %
  Parasitemia (%) at day 10: 26.91 (0.00 − 60.36) %
[3]; 25 mg/kg/d oral, days 0-3
  Parasitemia (%) at day 4: 0.62 (0.00 − 1.34) %
  Parasitemia (%) at day 10: 29.82 (11.20 − 48.43) %
[3]; [4]
  Parasitemia (%) at day 4: 0.02 (0.00 − 0.05) %
  Parasitemia (%) at day 10: 7.87 (0.00 − 23.92) %
[3]; [5]
  Parasitemia (%) at day 4: 0.01 (0.00 − 0.02) %
  Parasitemia (%) at day 10: 0.41 (0.00 − 1.38) %
[3]; 50 mg/kg/d oral, 2 days of treatment, n = 5
  Number of OF1 negative (neg) at day 10: (2 0F1 neg)
[3]; [6]
  Parasitemia (%) at day 4: 0.00 (0.00 − 0.00) %
  Parasitemia (%) at day 10: 0.003 (0.000 − 0.012) %
[3]; 50 mg/kg/d oral, 3 days of treatment, n = 6
  Number of OF1 negative (neg) at day 10: (5 0F1 neg)
[3]; [7]
  Parasitemia (%) at day 4: 0.00 (0.00 − 0.00) %
  Parasitemia (%) at day 10: 0.00 (0.00 − 0.00) %
[3]; 50 mg/kg/d oral, 4 days of treatment, n = 6
  Number of OF1 negative (neg) at day 10: (6 0F1 neg)
[3]; 50 mg/kg/d oral, days 0-3
  Parasitemia (%) at day 4: 0.00 (0.00 − 0.00) %
  Parasitemia (%) at day 10: 0.00 (0.00 − 0.00) %
[3]; 100 mg/kg/d oral, days 0-3
  Parasitemia (%) at day 4: 0.00 (0.00 − 0.00) %
  Parasitemia (%) at day 10: 0.00 (0.00 − 0.00) %
[3]; [8]
  Development of erythrocytic forms of P. berghei: completely and permanently inhibited
  Indications of toxicity: no observed indications of any toxicity
[1]
  IC50 P. falciparum NF54 strain: 0.005 µg/mL (≈ 0.0138 µM)

## Michellamine B
P. berghei (Anka)
  IC50 P. berghei, Anka: >50 µg/mL
[1]
  IC50 P. falciparum NF54 strain: 20.185 µg/mL

## COc1c(-c2c(C)cc(OC)c3c(O)cccc23)ccc2c1C(C)NC(C)C2 (stereo not drawn) [8-O-methyl-5′-O-demethyl-7-epi-dioncophylline A]
P. berghei (Anka)
  IC50 P. berghei, Anka: 4.580 µg/mL (≈ 12.1 µM)
[1]
  IC50 P. falciparum NF54 strain: 1.584 µg/mL (≈ 4.2 µM)

## Dioncolactone A
P. berghei (Anka)
  IC50 P. berghei, Anka: 0.598 µg/mL
[1]
  IC50 P. falciparum NF54 strain: 1.337 µg/mL

## N-methyl-ancistrocladine
[1]
  IC50 P. falciparum NF54 strain: 0.491 µg/mL

## 6-deoxy-N-methyl-ancistrocladine
[1]
  IC50 P. falciparum NF54 strain: 10.079 µg/mL

## COc1cccc2c(-c3ccc4c(c3O)[C@@H](C)N[C@H](C)C4)c(C)cc(OC)c12 [Dioncophylline A]
P. berghei (Anka)
  IC50 P. berghei, Anka: 0.961 µg/mL (≈ 2.55 µM)
[1]
  IC50 P. falciparum NF54 strain: 1.443 µg/mL (≈ 3.82 µM)
[2]
  IC50 P. falciparum, K1 strain: 0.860 µg/mL (≈ 2.28 µM)

## COc1cccc2c(-c3ccc4c(c3O)C(C)N(C)C(C)C4)c(C)cc(OC)c12 (single isomer, unassigned) [N-methyl-dioncophylline A (atropisomers)]
[1]
  IC50 P. falciparum NF54 strain: 17.411 µg/mL (≈ 44.5 µM)
